Legend:
ACE = ACE (Homo sapiens, UniProt P12821); test: In vitro ACE inhibitory activity, DOJINDO ACE Kit-WST reagent box; type: biochemical
hypertensive animals = conditions: snake venom peptide; cited from earlier work

Sequence of ACE (P12821 30-1306, species assumed): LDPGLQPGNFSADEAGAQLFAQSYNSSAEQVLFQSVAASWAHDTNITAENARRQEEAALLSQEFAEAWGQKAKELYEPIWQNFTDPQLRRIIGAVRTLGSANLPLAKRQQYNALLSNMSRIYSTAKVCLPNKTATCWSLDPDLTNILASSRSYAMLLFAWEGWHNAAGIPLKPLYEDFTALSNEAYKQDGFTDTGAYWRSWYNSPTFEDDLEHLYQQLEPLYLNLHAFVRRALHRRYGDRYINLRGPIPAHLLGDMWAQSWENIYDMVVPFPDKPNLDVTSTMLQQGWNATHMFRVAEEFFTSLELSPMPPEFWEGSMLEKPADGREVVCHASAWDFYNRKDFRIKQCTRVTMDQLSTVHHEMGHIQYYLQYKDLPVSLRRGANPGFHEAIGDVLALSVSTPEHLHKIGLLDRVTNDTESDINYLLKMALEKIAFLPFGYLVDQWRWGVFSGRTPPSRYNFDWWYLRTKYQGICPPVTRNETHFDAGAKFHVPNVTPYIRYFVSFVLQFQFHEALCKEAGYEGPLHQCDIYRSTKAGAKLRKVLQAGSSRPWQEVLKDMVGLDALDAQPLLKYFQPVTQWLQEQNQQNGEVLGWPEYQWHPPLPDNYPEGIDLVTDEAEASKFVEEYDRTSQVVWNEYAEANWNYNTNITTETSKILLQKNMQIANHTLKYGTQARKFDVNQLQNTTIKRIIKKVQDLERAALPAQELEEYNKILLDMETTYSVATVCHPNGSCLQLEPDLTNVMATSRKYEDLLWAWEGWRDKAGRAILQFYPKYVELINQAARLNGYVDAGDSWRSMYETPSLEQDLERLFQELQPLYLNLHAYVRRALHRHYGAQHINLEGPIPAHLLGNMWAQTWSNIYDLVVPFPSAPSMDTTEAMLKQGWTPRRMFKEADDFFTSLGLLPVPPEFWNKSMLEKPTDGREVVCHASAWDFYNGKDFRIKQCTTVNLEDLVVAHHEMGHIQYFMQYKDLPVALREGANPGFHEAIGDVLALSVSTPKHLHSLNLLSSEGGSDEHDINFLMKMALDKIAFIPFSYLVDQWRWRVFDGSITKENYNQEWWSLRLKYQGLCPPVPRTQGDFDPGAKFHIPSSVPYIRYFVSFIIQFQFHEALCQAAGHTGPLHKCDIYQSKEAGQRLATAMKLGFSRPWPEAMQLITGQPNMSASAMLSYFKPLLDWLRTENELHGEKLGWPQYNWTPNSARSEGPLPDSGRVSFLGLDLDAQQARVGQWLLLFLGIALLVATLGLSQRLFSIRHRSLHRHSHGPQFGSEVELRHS

Substance	ACE-inhibitory activity, comparison in words (ACE)	antihypertensive effect for hypertensive animals (hypertensive animals)
H-Asp-Arg-Tyr-OH [D2]	potencies are still higher than that of compound 144	–
H-Leu-Arg-Asn-OH [D1]	potencies are still higher than that of compound 144	–
Pyr-Trp-Pro-Arg-Pro-Gln-Ile-Pro-Pro	–	best antihypertensive effect for hypertensive animals

— article PMC12538393 (RSC Advances, 2025)
